The source made the active and inactive calls.
Key:
[1] = biological target: Voltage-dependent T-type calcium channel subunit alpha-1H (Homo sapiens, UniProt O95180); assay type: functional;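 also: channel activity triggered by adding a high calcium stimulation buffer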
[2] = A cytotoxicity screen of small molecule inhibitors of the PhoP region in Salmonella typhi identified in the primary screen. [Related pubchem assays: 1850, 1864, 1985 ]; assay type: functional
Estrogen receptor beta [3] = biological target: T1, Estrogen receptor beta (Homo sapiens, UniProt Q92731); test: blockers of SRC-3 recruitment to ERβ – biochemical, ELISA, streptavidin-HRP readout, orthogonal assay, confirmation (AID 1060)
T1 sequence (Q92731 whole entry): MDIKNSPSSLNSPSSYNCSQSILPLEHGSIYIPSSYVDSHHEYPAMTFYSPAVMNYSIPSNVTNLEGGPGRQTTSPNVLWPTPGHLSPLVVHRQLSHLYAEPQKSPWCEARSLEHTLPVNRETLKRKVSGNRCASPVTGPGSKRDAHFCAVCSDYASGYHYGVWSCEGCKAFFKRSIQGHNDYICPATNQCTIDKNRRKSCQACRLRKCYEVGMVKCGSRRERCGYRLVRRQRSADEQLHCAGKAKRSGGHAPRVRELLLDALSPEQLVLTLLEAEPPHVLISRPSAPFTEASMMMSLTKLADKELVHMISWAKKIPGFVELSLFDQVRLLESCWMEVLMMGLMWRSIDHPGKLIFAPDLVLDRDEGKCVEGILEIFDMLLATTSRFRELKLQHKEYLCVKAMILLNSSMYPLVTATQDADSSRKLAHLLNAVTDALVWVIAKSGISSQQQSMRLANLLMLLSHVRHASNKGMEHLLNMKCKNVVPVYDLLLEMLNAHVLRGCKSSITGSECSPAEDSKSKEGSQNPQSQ

cells [4] = assay type: functional, cell-based
[5] = biological target: T2, Trace amine-associated receptor 1 (Homo sapiens, UniProt Q96RJ0); test: Fluorescence-based cell-based high throughput dose response assay to identify agonists of the human trace amine associated receptor 1 (TAAR1).; assay type: functional
T2 sequence (Q96RJ0 whole entry): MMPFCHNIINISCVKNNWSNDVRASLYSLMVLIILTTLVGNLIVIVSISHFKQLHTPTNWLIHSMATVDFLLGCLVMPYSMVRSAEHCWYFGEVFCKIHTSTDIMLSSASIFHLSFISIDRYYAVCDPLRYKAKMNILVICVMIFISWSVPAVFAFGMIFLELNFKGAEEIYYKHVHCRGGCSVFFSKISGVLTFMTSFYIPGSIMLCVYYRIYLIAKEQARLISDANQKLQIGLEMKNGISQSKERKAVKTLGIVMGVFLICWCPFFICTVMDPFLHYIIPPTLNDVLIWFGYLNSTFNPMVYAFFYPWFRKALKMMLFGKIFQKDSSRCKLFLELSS

[6] = biological target: T2, Trace amine-associated receptor 1; test: Counterscreen for agonists of the human trace amine associated receptor 1 (hTAAR1): Fluorescence-based cell-based high throughput dose response assay to identify hTAAR1 agonist that also desensitize TAAR1 receptor response.; assay type: functional
cells [7] = assay type: functional, cell-based; remark: listed apart in the source
Estrogen receptor = biological target: T3, Estrogen receptor (Homo sapiens, UniProt P03372);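 also: potency for inhibiting coactivator peptide recruitment to the receptor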
T3 sequence (P03372 whole entry): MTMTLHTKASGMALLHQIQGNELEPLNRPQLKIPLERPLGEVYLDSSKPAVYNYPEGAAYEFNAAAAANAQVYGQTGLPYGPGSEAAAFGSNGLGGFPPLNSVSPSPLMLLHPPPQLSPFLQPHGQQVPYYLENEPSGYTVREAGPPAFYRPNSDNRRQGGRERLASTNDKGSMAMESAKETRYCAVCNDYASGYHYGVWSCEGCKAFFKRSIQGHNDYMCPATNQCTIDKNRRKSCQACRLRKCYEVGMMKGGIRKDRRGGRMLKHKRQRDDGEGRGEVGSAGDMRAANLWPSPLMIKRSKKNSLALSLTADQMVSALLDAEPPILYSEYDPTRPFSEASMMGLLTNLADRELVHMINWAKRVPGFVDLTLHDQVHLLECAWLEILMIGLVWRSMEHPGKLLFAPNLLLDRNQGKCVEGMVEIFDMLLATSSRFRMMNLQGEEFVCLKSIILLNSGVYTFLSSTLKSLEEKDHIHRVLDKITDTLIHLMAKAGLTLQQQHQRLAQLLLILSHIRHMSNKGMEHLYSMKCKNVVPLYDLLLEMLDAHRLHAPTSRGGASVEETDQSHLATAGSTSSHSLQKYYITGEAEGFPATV

Estrogen receptor beta [8] = biological target: T1, Estrogen receptor beta
[9] = viability of PTEN-deleted HCT116 cells – cell-based, HCT116 PTEN knockout, dose response (AID 1047); assay type: functional;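 also: HCT116 colon tumor cells with PTEN knocked out; cells exposed to compound for 60 hours before readout; potency for loss of cell viability measured by luminescence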
[10] = viability of HCT116 lacking mutant beta-catenin – cell-based, human colon tumor, dose response (AID 1045); assay type: functional;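 also: HCT116 colon tumor cells with beta catenin knocked out; cells exposed to compound for 60 hours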
[11] = biological target: Induced myeloid leukemia cell differentiation protein Mcl-1 (Homo sapiens, UniProt Q07820); assay type: functional
Sequence of Induced myeloid leukemia cell differentiation protein Mcl-1 (Q07820 whole entry): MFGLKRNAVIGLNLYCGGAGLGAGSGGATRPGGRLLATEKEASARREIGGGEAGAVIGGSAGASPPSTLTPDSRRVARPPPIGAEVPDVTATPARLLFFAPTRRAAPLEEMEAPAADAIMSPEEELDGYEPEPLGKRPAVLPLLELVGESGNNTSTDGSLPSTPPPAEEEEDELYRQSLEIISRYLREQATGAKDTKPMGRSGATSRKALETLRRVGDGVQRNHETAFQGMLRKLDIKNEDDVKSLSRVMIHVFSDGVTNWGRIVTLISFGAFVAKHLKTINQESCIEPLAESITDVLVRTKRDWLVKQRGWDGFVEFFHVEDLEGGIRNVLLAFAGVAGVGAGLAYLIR

[12] = HEK-293T cell viability reduction – luminescence, B-cell screen hits, cytotoxicity control for BCR NF-kB inhibitor project, dose response (AID 489021); assay type: functional, cell-based;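 also: HEK-293T cells carrying an NF-kB luciferase reporter; cells exposed to compound for about 14 hours before viability readout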
[13] = biological target: T4, Mannose-6-phosphate isomerase (Homo sapiens, UniProt P34949); test: MPI inhibition at elevated mannose 6-phosphate – biochemical, fluorescence intensity, high mannose 6-phosphate, primary screen (AID 1220)
T4 sequence (P34949 whole entry): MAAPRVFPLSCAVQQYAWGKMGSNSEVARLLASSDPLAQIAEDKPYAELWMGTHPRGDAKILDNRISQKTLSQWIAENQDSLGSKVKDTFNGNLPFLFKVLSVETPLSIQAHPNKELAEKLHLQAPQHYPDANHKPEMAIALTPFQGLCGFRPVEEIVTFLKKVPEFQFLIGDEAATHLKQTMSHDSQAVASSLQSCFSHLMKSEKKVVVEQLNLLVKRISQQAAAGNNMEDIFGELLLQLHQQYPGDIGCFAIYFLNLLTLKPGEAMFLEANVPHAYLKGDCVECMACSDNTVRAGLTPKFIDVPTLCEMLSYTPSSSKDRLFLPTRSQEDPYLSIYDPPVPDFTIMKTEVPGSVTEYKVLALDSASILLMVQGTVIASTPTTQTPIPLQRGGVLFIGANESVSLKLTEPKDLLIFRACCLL

[14] = biological target: Eukaryotic translation initiation factor 4E (Mus musculus, UniProt P63073); test: blockers of eIF4G binding by eIF4E – biochemical, TR-FRET, dose response (AID 855); assay type: functional;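 also: potency for disrupting eIF4E binding to eIF4GI seen as loss of FRET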
Sequence of Eukaryotic translation initiation factor 4E (P63073 whole entry): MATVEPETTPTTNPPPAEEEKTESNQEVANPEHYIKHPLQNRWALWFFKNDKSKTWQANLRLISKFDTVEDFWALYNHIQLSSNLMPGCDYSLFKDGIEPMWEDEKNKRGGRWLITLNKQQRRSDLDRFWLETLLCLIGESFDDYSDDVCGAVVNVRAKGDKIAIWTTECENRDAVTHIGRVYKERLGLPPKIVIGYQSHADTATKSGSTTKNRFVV

Aminopeptidase N = biological target: T5, Aminopeptidase N (Plasmodium falciparum FcB1/Columbia, UniProt O96935); test: malaria alanyl aminopeptidase activity blockers – biochemical, fluorogenic H-Leu-NHMec substrate, 1536-well (AID 1445); set-up: species or system Plasmodium falciparum 3D7, 3D7
T5 sequence (O96935 whole entry): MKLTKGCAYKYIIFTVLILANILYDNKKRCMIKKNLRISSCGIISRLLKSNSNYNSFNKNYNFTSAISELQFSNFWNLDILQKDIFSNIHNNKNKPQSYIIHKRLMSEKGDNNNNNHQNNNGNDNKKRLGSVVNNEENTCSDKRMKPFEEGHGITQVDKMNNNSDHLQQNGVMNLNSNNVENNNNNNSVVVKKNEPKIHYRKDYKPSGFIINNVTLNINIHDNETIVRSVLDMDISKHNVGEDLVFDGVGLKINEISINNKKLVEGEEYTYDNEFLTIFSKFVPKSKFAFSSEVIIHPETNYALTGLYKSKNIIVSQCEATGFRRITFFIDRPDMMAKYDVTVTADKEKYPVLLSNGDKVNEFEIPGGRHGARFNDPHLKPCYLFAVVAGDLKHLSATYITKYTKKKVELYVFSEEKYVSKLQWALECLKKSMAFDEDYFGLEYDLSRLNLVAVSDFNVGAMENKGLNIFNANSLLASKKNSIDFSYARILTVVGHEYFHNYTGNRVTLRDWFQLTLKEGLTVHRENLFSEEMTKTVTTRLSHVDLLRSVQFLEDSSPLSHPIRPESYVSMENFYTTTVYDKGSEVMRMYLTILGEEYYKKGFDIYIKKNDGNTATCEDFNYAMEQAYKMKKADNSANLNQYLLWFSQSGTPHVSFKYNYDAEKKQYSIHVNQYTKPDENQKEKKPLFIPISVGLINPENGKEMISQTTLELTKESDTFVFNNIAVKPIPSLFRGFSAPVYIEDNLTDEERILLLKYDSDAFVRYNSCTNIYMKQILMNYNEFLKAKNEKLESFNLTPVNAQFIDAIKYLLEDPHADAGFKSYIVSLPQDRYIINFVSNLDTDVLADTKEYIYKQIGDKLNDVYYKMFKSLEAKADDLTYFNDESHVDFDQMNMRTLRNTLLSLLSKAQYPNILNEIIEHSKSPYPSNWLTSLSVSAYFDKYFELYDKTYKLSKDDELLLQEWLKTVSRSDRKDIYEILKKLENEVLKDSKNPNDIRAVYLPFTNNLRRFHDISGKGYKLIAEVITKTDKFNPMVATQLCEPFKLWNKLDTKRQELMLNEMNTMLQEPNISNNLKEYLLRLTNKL

[15] = NIH-3T3 fibroblast cytotoxicity, dose response, cytotoxicity control, cell-based, fluorescence, Alamar Blue, secondary assay (AID 2327); assay type: functional;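 also: NIH-3T3 mouse fibroblasts cultured with fluconazole at 8 µg/mL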
[16] = fluconazole-exposed Candida albicans growth modulators – fluorescence, retest, confirmation (AID 2467); assay type: functional, cell-based
[17] = biological target: T6, Serine/threonine-protein phosphatase (Candida dubliniensis (strain CD36 / CBS 7987 / NCPF 3949 / NRRLY-17841) (Yeast), UniProt B9W6M3); test: blockers of CaCl2-induced CDRE-lacZ signaling – S. cerevisiae, luminescence, secondary, dose response (AID 2388); assay type: functional, cell-based;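 also: yeast reporter cells carrying a calcineurin-responsive lacZ construct stimulated with calcium chloride; luminescent beta-galactosidase reporter signal in whole cells rather than isolated phosphatase activity; potency for inhibition where a drop in reporter signal means calcineurin blockade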
T6 sequence (B9W6M3 whole entry): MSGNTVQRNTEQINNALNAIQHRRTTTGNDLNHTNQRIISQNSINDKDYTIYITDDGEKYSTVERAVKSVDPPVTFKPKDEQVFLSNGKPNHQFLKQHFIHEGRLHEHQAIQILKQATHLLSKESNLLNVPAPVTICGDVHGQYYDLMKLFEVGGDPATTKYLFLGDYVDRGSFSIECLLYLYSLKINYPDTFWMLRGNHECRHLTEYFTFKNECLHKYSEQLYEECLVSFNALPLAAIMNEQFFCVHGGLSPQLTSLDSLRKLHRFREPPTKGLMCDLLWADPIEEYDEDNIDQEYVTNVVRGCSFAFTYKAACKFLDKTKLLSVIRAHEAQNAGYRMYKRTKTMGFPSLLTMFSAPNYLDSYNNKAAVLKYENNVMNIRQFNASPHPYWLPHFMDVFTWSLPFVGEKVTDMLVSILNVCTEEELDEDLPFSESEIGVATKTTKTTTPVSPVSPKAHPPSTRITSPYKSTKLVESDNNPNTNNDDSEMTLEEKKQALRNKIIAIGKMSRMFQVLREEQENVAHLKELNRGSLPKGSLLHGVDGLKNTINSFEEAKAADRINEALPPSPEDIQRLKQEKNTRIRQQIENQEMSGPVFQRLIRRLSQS

[18] = biological target: ATP-dependent molecular chaperone HSP82 (Candida albicans (strain WO-1) (Yeast), UniProt C4YTQ8); test: steroid-induced GRE reporter decrease in yeast – S. cerevisiae, luminescence, Hsp90 inhibitor project, dose response (AID 2400); assay type: functional, cell-based;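 also: beta-galactosidase luminescence from glucocorticoid response element reporter as proxy for Hsp90 function; inhibitor potency where signal loss means Hsp90 inhibition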
Sequence of ATP-dependent molecular chaperone HSP82 (C4YTQ8 whole entry): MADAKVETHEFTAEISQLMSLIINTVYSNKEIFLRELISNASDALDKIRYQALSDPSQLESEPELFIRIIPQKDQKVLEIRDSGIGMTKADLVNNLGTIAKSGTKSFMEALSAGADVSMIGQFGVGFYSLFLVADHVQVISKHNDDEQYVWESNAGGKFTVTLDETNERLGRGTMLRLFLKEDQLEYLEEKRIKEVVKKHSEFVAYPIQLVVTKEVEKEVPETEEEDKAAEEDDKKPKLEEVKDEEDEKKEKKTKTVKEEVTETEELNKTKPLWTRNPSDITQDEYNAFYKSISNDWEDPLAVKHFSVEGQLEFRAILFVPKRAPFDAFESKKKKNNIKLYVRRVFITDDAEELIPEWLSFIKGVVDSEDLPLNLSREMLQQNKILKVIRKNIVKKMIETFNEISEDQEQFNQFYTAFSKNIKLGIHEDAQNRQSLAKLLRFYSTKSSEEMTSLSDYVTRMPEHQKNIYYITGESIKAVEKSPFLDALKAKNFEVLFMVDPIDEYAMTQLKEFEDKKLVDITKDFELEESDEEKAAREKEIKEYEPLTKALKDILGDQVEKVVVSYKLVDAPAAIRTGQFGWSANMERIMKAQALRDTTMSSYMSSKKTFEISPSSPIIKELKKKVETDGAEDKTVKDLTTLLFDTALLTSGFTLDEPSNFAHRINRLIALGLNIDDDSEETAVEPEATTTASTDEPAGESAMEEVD

Trypsin = Trypsin (Sus scrofa, UniProt P00761); test: trypsin protease activity blockade – biochemical, quenched peptide fluorescence, cherry-pick, selectivity assay for Rce1 protease inhibitor project, dose response (AID 488789)
Sequence of Trypsin (P00761 whole entry): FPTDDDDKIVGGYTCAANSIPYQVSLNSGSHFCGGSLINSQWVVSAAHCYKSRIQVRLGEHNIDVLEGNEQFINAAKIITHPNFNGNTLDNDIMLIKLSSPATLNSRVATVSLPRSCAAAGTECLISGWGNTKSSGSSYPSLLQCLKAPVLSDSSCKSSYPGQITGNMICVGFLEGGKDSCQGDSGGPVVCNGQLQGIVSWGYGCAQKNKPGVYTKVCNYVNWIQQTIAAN

[19] = biological target: FAD-linked sulfhydryl oxidase ALR (Homo sapiens, UniProt P55789); test: ALR-catalysed DTT oxidation blockers – biochemical, H2O2 detection, luminescence, cherry-pick, dose response (AID 493248)
Sequence of FAD-linked sulfhydryl oxidase ALR (P55789 whole entry): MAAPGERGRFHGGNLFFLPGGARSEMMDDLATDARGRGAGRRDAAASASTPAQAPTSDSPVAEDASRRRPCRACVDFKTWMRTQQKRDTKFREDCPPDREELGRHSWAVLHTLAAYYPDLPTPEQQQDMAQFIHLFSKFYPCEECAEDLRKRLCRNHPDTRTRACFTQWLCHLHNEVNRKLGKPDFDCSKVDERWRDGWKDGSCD

Sequence of Voltage-dependent T-type calcium channel subunit alpha-1H (O95180 whole entry): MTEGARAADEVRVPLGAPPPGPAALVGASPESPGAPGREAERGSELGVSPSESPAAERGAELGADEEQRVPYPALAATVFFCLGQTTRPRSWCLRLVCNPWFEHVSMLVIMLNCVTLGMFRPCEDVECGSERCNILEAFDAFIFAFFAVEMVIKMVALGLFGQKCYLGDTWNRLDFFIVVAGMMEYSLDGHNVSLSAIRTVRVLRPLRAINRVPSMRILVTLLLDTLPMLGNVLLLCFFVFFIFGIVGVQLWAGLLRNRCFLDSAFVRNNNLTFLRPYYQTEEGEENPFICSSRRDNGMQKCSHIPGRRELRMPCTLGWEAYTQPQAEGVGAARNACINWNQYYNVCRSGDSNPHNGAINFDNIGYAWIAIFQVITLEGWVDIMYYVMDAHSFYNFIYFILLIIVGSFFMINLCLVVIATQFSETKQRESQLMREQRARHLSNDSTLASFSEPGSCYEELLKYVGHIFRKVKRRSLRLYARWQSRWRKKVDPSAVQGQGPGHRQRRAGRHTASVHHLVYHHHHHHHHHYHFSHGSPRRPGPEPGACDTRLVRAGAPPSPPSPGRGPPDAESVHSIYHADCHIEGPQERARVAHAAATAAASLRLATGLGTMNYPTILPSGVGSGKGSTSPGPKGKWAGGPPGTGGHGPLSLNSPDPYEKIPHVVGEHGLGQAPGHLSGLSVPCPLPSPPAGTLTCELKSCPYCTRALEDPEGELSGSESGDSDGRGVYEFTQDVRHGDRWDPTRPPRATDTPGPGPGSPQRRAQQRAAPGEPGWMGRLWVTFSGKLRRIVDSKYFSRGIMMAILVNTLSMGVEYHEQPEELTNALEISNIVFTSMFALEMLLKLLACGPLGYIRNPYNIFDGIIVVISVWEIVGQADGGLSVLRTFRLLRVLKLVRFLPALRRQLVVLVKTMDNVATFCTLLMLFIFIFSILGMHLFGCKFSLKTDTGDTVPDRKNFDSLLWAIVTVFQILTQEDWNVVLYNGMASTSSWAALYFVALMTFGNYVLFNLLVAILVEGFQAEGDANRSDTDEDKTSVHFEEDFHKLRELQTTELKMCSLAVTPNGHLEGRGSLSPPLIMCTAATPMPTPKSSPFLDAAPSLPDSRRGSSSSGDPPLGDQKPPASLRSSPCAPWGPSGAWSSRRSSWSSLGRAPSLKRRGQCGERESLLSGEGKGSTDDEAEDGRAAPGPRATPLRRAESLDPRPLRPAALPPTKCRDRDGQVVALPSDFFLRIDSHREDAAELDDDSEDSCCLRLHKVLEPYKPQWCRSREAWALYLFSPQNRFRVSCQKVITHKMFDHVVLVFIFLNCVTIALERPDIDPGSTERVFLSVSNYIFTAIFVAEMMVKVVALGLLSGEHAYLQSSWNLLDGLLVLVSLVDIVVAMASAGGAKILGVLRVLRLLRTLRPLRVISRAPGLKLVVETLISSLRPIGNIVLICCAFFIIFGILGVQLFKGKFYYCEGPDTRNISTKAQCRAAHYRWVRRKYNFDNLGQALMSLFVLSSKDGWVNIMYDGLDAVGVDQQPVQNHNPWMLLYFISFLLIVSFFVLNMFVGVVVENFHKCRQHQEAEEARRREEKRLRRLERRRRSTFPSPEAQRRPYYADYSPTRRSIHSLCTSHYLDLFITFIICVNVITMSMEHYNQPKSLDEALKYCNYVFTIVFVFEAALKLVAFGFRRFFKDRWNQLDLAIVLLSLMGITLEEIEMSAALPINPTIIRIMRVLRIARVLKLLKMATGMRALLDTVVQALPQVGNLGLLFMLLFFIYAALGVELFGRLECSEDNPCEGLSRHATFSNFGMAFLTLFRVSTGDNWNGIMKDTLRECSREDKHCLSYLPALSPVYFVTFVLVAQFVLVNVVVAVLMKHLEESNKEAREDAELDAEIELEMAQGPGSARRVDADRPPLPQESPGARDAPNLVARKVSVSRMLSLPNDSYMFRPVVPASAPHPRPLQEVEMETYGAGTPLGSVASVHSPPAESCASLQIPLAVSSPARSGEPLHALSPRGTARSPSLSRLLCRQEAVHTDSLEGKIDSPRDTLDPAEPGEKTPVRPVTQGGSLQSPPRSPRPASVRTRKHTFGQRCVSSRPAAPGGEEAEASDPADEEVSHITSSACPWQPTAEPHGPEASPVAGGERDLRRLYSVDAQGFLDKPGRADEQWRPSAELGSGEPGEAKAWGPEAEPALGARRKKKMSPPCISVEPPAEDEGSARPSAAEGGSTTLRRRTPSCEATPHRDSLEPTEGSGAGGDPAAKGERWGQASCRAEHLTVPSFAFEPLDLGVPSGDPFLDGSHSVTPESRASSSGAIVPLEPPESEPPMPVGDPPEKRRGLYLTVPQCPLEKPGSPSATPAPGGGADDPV

SMILES: Cc1cccc(N2CCN(C(=O)CCCOc3ccccc3)CC2)c1C
- EC50 [1]: 5.65 µM (active)

SMILES: CC(C)CCNC(=O)c1cc2c(s1)-c1ccccc1S(=O)(=O)C2
- EC50 [2]: > 50 µM (active)

SMILES: CN1CCN(c2ccc(NC(=O)c3cccc(OCc4ccccc4)c3)cc2)CC1
- IC50 (Estrogen receptor beta [3]): 0.0793 µM (not active)
- IC50 (cells [4]): > 29.9 µM (inactive)
- EC50 [5]: 9.36 µM (active)
- IC50 [6]: 9.06 µM (active)
- EC50 (cells [7]): > 29.9 µM (inactive)

SMILES: CCN1CCCC1Cn1cnc2c3cc(Cl)ccc3nc-2c1O (centres undefined)
- EC50 [2]: > 50 µM (active)

SMILES: CCOc1cccc2cc(-c3cn4cc(C)ccc4n3)c(=O)oc12
- IC50 (Estrogen receptor): 3.82 µM (active)
- IC50 (Estrogen receptor beta [8]): > 50 µM (not active)
- EC50 [9]: 1.33 µM (active)
- IC50 (Estrogen receptor beta [3]): > 50 µM (not active)
- EC50 [10]: 2.46 µM (active)

SMILES: Cc1cnc(Nc2nc3ccccc3o2)nc1C(=O)Nc1cccc(C(F)(F)F)c1
- EC50 [1]: 5.15 µM (active)

SMILES: Cc1ccc(-c2nnc(CSc3nnc(COc4ccccc4)n3-c3ccc(C)cc3)o2)cc1
- EC50 [1]: 4.75 µM (active)

SMILES: CCc1cc(C(=O)N=Nc2c(O)[nH]c3ccc([N+](=O)[O-])cc23)c2ccccc2n1
- IC50 [11]: 6.88 µM (active)

SMILES: O=C(CN1C(=O)c2ccccc2S1(=O)=O)c1ccc(OC(F)F)cc1
- IC50 [12]: > 80 µM (inactive)

SMILES: OCCN1CCN(C(c2cccs2)c2ccc3cccnc3c2O)CC1 (centres undefined)
- IC50 (Estrogen receptor beta [3]): 2.82 µM (active)
- IC50 [13]: > 50 µM (not active)
- IC50 [14]: > 64 µM (inactive)

SMILES: CC(C)OC(=O)c1cccc(C(=O)Oc2ccc(Br)cc2)n1
- EC50 [2]: > 50 µM (active)

SMILES: O=C(Cc1ccc(S(=O)(=O)N2CCOCC2)s1)NCCC(c1ccccc1)c1ccccc1
- IC50 (Aminopeptidase N): 2.76 µM (active)

SMILES: O=C(O)c1ccccc1-c1ccccc1C(=O)Nc1cccc(-c2nc3ccccc3o2)c1
- EC50 [15]: > 160 µM (inactive)
- IC50 (Aminopeptidase N): 16.4 µM (active)
- EC50 [16]: 2.62 µM (active)
- EC50 [17]: > 180 µM (inactive)
- EC50 [18]: > 150 µM (inactive)

SMILES: CCCn1c(N2CCN(CC(=O)Nc3ccc4c(c3)OCCO4)CC2)nc2ccccc21
- EC50 [1]: 3.84 µM (active)

SMILES: CN1C(=O)c2ccccc2N(C)C1c1ccccc1Cl (centres undefined)
- AC50 (Trypsin): 9.6 µM (active)

SMILES: Cc1c(CCC(=O)O)c(=O)oc2cc3occ(-c4ccc(F)cc4)c3cc12
- IC50 (Aminopeptidase N): 16.3 µM (active)
- AC50 [19]: 2.68 µM (active)

SMILES: O=C(c1ccco1)N1CCCN(Cc2nc(-c3ccc4c(c3)OCO4)no2)CC1
- EC50 [2]: > 50 µM (active)

SMILES: Cc1cc(OCC(=O)N2CCC(C(N)=O)CC2)c2c3c(c(=O)oc2c1)CCCC3
- IC50 [12]: > 80 µM (inactive)

SMILES: CCCNC(=O)c1ccc(N2CCC3(CC2)CC(c2cccc(Br)c2)=NO3)c(NC(=O)c2ccc(Cl)c([N+](=O)[O-])c2)c1
- IC50 [12]: > 80 µM (inactive)
